This data set in a line: Solubility of flame retardant in styrene. Type of data set: physicochemical.

Some results are limits rather than exact numbers.

`O=C1NC(=O)C2CC(Br)C(Br)CC12` (stereo not drawn) [II]: the Solubility (at 40° C.) is given as >1 wt %.
Turning to `O=C1C2C3CC(C(Br)C3Br)C2C(=O)N1CCN1C(=O)C2C3CC(C(Br)C3Br)C2C1=O` (stereo not drawn) [BN-451, reference compound], where the note is “at 25° C.”, the Solubility was <0.1 wt %.
Still for that read-out and setting: in the case of `CN1C(=O)C2CC(Br)C(Br)CC2C1=O` (stereo not drawn) [III] it was >5 wt %.

The values above are taken from patent publication US20080096990A1, “Flame Retardant Polystyrene Foam Compositions” (priority 2004, published 2008).
